In ChEMBL document CHEMBL1255497, “Azole resistance profile of amino acid changes in Aspergillus fumigatus CYP51A based on protein homology modeling” (2010):
≈ marks a conversion by molar mass, not a printed value.

Experiments:
Aspergillus fumigatus [1] = assay: Antimicrobial activity against itraconazole-resistant Aspergillus fumigatus clinical isolate expressing cyp51A L98H, F495I mutant gene by CLSI method; format: functional
Aspergillus fumigatus [2] = assay: Antimicrobial activity against itraconazole-resistant Aspergillus fumigatus clinical isolate expressing wild type cyp51A gene by CLSI method; format: functional
Aspergillus fumigatus [3] = assay: Antimicrobial activity against itraconazole-susceptible Aspergillus fumigatus clinical isolate expressing cyp51A F46Y, G89G, M172V, N248T, D255E, L358L, E427K, C454C mutant gene by CLSI method; format: functional
Aspergillus fumigatus [4] = assay: Antimicrobial activity against itraconazole-resistant Aspergillus fumigatus clinical isolate expressing cyp51A M220R mutant gene by CLSI method; format: functional
Aspergillus fumigatus [5] = assay: Antimicrobial activity against itraconazole-resistant Aspergillus fumigatus environmental isolate expressing cyp51A L98H, Q141H mutant gene by CLSI method
Aspergillus fumigatus [6] = assay: Antimicrobial activity against itraconazole-resistant Aspergillus fumigatus clinical isolate expressing cyp51A M220V mutant gene by CLSI method; format: functional
Aspergillus fumigatus [7] = assay: Antimicrobial activity against itraconazole-susceptible Aspergillus fumigatus clinical isolate expressing cyp51A F46Y, G89G, L358L, E427K, C454C mutant gene by CLSI method; format: functional
Aspergillus fumigatus [8] = assay: Antimicrobial activity against itraconazole-susceptible Aspergillus fumigatus clinical isolate expressing cyp51A F46Y, G89G, E427K, C454C mutant gene by CLSI method; format: functional
Aspergillus fumigatus [9] = assay: Antimicrobial activity against itraconazole-susceptible Aspergillus fumigatus clinical isolate expressing cyp51A E130D mutant gene by CLSI method; format: functional
Aspergillus fumigatus [10] = assay: Antimicrobial activity against itraconazole-susceptible Aspergillus fumigatus clinical isolate expressing cyp51A S400I mutant gene by CLSI method; format: functional
Aspergillus fumigatus [11] = assay: Antimicrobial activity against itraconazole-resistant Aspergillus fumigatus clinical isolate expressing cyp51A L98H mutant gene by CLSI method; format: functional
Aspergillus fumigatus [12] = assay: Antimicrobial activity against itraconazole-susceptible Aspergillus fumigatus clinical isolate expressing cyp51A F46Y, G89G, M172V, N248T, D255E, E427K mutant gene by CLSI method; format: functional
Aspergillus fumigatus [13] = assay: Antimicrobial activity against itraconazole-resistant Aspergillus fumigatus clinical isolate expressing cyp51A L98H, S297T, F495 mutant gene by CLSI method; format: functional
Aspergillus fumigatus [14] = assay: Antimicrobial activity against itraconazole-resistant Aspergillus fumigatus clinical isolate expressing cyp51A L98H, L339L mutant gene by CLSI method; format: functional
Aspergillus fumigatus [15] = assay: Antimicrobial activity against itraconazole-resistant Aspergillus fumigatus clinical isolate expressing cyp51A L98H, A284A mutant gene by CLSI method; format: functional
Aspergillus fumigatus [16] = assay: Antimicrobial activity against itraconazole-resistant Aspergillus fumigatus clinical isolate expressing cyp51A L98H, N125I mutant gene by CLSI method; format: functional
Aspergillus fumigatus [17] = assay: Antimicrobial activity against itraconazole-resistant Aspergillus fumigatus clinical isolate expressing cyp51A G138C mutant gene by CLSI method; format: functional
Aspergillus fumigatus [18] = assay: Antimicrobial activity against itraconazole-susceptible Aspergillus fumigatus clinical isolate expressing cyp51A L252L mutant gene by CLSI method; format: functional
Aspergillus fumigatus [19] = assay: Antimicrobial activity against itraconazole-susceptible Aspergillus fumigatus clinical isolate expressing cyp51A F46Y, G89G, M172V, L358L, E427K, C454C mutant gene by CLSI method; format: functional
Aspergillus fumigatus [20] = assay: Antimicrobial activity against itraconazole-resistant Aspergillus fumigatus clinical isolate expressing cyp51A M220I mutant gene by CLSI method; format: functional
Aspergillus fumigatus [21] = assay: Antimicrobial activity against itraconazole-resistant Aspergillus fumigatus environmental isolate expressing cyp51A L98H, S52T mutant gene by CLSI method
Aspergillus fumigatus [22] = assay: Antimicrobial activity against itraconazole-resistant Aspergillus fumigatus clinical isolate expressing cyp51A L98H, Q88H mutant gene and by CLSI method; format: functional
Aspergillus fumigatus [23] = assay: Antimicrobial activity against itraconazole-resistant Aspergillus fumigatus clinical isolate expressing cyp51A G54W mutant gene by CLSI method; format: functional
Aspergillus fumigatus [24] = assay: Antimicrobial activity against itraconazole-susceptible Aspergillus fumigatus environmental isolate expressing cyp51A F46Y, G89G, M172V, L358L, C454C mutant gene by CLSI method
Aspergillus fumigatus [25] = assay: Antimicrobial activity against itraconazole-susceptible Aspergillus fumigatus clinical isolate expressing wild type cyp51A gene by CLSI method; format: functional
Aspergillus fumigatus [26] = assay: Antimicrobial activity against itraconazole-susceptible Aspergillus fumigatus clinical isolate expressing cyp51A F46Y, G89G mutant gene by CLSI method; format: functional
Aspergillus fumigatus [27] = assay: Antimicrobial activity against itraconazole-resistant Aspergillus fumigatus clinical isolate expressing cyp51A M220K mutant gene by CLSI method; format: functional
Aspergillus fumigatus [28] = assay: Antimicrobial activity against itraconazole-susceptible Aspergillus fumigatus clinical isolate expressing cyp51A F46Y, M172V, L358L, E427K, C454C mutant gene by CLSI method; format: functional
Aspergillus fumigatus [29] = assay: Antimicrobial activity against itraconazole-resistant Aspergillus fumigatus clinical isolate expressing cyp51A G54E mutant gene by CLSI method; format: functional
Aspergillus fumigatus [30] = assay: Antimicrobial activity against itraconazole-resistant Aspergillus fumigatus clinical isolate expressing cyp51A F46Y, G89G, M172V, N248T, D255E, L358L, E427K and C454C mutant gene by CLSI method; format: functional

SMILES	MIC (Aspergillus fumigatus [1]) [µg/mL]	MIC (Aspergillus fumigatus [2]) [µg/mL]	MIC (Aspergillus fumigatus [3]) [µg/mL]	MIC (Aspergillus fumigatus [4]) [µg/mL]	MIC (Aspergillus fumigatus [5]) [µg/mL]	MIC (Aspergillus fumigatus [6]) [µg/mL]	MIC (Aspergillus fumigatus [7]) [µg/mL]	MIC (Aspergillus fumigatus [8]) [µg/mL]	MIC (Aspergillus fumigatus [9]) [µg/mL]	MIC (Aspergillus fumigatus [10]) [µg/mL]	MIC (Aspergillus fumigatus [11]) [µg/mL]	MIC (Aspergillus fumigatus [12]) [µg/mL]	MIC (Aspergillus fumigatus [13]) [µg/mL]	MIC (Aspergillus fumigatus [14]) [µg/mL]	MIC (Aspergillus fumigatus [15]) [µg/mL]	MIC (Aspergillus fumigatus [16]) [µg/mL]	MIC (Aspergillus fumigatus [17]) [µg/mL]	MIC (Aspergillus fumigatus [18]) [µg/mL]	MIC (Aspergillus fumigatus [19]) [µg/mL]	MIC (Aspergillus fumigatus [20]) [µg/mL]	further results
CCC(C)n1ncn(-c2ccc(N3CCN(c4ccc(OCC5COC(Cn6cncn6)(c6ccc(Cl)cc6Cl)O5)cc4)CC3)cc2)c1=O (stereo not given) [ITRACONAZOLE]	> 16	8 (≈ 11.3 µM)	0.25 (≈ 0.354 µM)	> 16	> 16	> 16	0.25 (≈ 0.354 µM)	0.25 (≈ 0.354 µM)	0.5 (≈ 0.709 µM)	1 (≈ 1.42 µM)	4 (≈ 5.67 µM)	0.25 (≈ 0.354 µM)	16 (≈ 22.7 µM)	> 16	> 16	> 16	> 16	0.25 (≈ 0.354 µM)	0.125 (≈ 0.177 µM)	> 16	MIC (Aspergillus fumigatus [21]): > 16 µg/mL; MIC (Aspergillus fumigatus [22]): > 16 µg/mL; MIC (Aspergillus fumigatus [23]): > 16 µg/mL; MIC (Aspergillus fumigatus [24]): 0.25 µg/mL (≈ 0.354 µM); MIC (Aspergillus fumigatus [25]): 0.125 µg/mL (≈ 0.177 µM); MIC (Aspergillus fumigatus [26]): 0.125 µg/mL (≈ 0.177 µM); MIC (Aspergillus fumigatus [27]): > 16 µg/mL; MIC (Aspergillus fumigatus [28]): 0.125 µg/mL (≈ 0.177 µM); MIC (Aspergillus fumigatus [29]): > 16 µg/mL; MIC (Aspergillus fumigatus [30]): > 16 µg/mL
CC[C@@H]([C@H](C)O)n1ncn(-c2ccc(N3CCN(c4ccc(OC[C@@H]5CO[C@@](Cn6cncn6)(c6ccc(F)cc6F)C5)cc4)CC3)cc2)c1=O [POSACONAZOLE]	0.125 (≈ 0.178 µM)	0.125 (≈ 0.178 µM)	0.063 (≈ 0.0899 µM)	2 (≈ 2.85 µM)	0.5 (≈ 0.713 µM)	0.5 (≈ 0.713 µM)	0.063 (≈ 0.0899 µM)	0.063 (≈ 0.0899 µM)	0.125 (≈ 0.178 µM)	0.25 (≈ 0.357 µM)	0.25 (≈ 0.357 µM)	0.063 (≈ 0.0899 µM)	0.063 (≈ 0.0899 µM)	1 (≈ 1.43 µM)	0.5 (≈ 0.713 µM)	0.5 (≈ 0.713 µM)	> 16	0.5 (≈ 0.713 µM)	0.063 (≈ 0.0899 µM)	0.5 (≈ 0.713 µM)	MIC (Aspergillus fumigatus [21]): 0.5 µg/mL (≈ 0.713 µM); MIC (Aspergillus fumigatus [22]): 0.25 µg/mL (≈ 0.357 µM); MIC (Aspergillus fumigatus [23]): > 16 µg/mL; MIC (Aspergillus fumigatus [24]): 0.125 µg/mL (≈ 0.178 µM); MIC (Aspergillus fumigatus [25]): 0.031 µg/mL (≈ 0.0442 µM); MIC (Aspergillus fumigatus [26]): 0.016 µg/mL (≈ 0.0228 µM); MIC (Aspergillus fumigatus [27]): > 16 µg/mL; MIC (Aspergillus fumigatus [28]): 0.063 µg/mL (≈ 0.0899 µM); MIC (Aspergillus fumigatus [29]): 0.25 µg/mL (≈ 0.357 µM); MIC (Aspergillus fumigatus [30]): 1 µg/mL (≈ 1.43 µM)
C[C@@H](c1ncncc1F)[C@](O)(Cn1cncn1)c1ccc(F)cc1F [VORICONAZOLE]	2 (≈ 5.73 µM)	0.25 (≈ 0.716 µM)	0.25 (≈ 0.716 µM)	2 (≈ 5.73 µM)	4 (≈ 11.5 µM)	1 (≈ 2.86 µM)	2 (≈ 5.73 µM)	0.25 (≈ 0.716 µM)	0.5 (≈ 1.43 µM)	2 (≈ 5.73 µM)	2 (≈ 5.73 µM)	1 (≈ 2.86 µM)	1 (≈ 2.86 µM)	8 (≈ 22.9 µM)	4 (≈ 11.5 µM)	8 (≈ 22.9 µM)	8 (≈ 22.9 µM)	1 (≈ 2.86 µM)	0.5 (≈ 1.43 µM)	1 (≈ 2.86 µM)	MIC (Aspergillus fumigatus [21]): 4 µg/mL (≈ 11.5 µM); MIC (Aspergillus fumigatus [22]): 8 µg/mL (≈ 22.9 µM); MIC (Aspergillus fumigatus [23]): 0.25 µg/mL (≈ 0.716 µM); MIC (Aspergillus fumigatus [24]): 1 µg/mL (≈ 2.86 µM); MIC (Aspergillus fumigatus [25]): 0.5 µg/mL (≈ 1.43 µM); MIC (Aspergillus fumigatus [26]): 0.5 µg/mL (≈ 1.43 µM); MIC (Aspergillus fumigatus [27]): 2 µg/mL (≈ 5.73 µM); MIC (Aspergillus fumigatus [28]): 1 µg/mL (≈ 2.86 µM); MIC (Aspergillus fumigatus [29]): 0.25 µg/mL (≈ 0.716 µM); MIC (Aspergillus fumigatus [30]): > 16 µg/mL
